Patent publication US20130109854A1, “Novel Methods for Preparation of (+)-1-ethyl-4-[2-(4-morpholinyl)ethyl)-3,3-diphenyl-2-pyrrolidinone and Salts Thereof” (priority 2011, published 2013)

Columns and labels:
[1] = cited from earlier work
[2] = Stimulating ventilation or reversing respiratory depression (respiratory stimulant activity); assay type: in vivo; conditions: compared with racemic doxapram
[3] = Acute side effects in animals; assay type: in vivo; conditions: compared with racemic doxapram or a salt thereof

SMILES | tidal volume and respiratory rate ([1]; administered intravenously) | effect on stimulating respiration (breathing) ([1]; animals, Ward & Franko, 1962) | activity in stimulating ventilation or reversing respiratory depression (desired beneficial pharmacological activity of racemic doxapram) [2] | adverse side effects compared to administration of racemic doxapram [3]
CCN1CC(CCN2CCOCC2)C(c2ccccc2)(c2ccccc2)C1=O (racemic) [doxapram] | increase | strong, dose-dependent effect | – | –
CCN1CC(CCN2CCOCC2)C(c2ccccc2)(c2ccccc2)C1=O (single isomer, unassigned; (-)) [(−)-doxapram] | – | – | essentially devoid of activity | –
CCN1C[C@H](CCN2CCOCC2)C(c2ccccc2)(c2ccccc2)C1=O [(+)-doxapram, (+)-4-(2-(1-ethyl-5-oxo-4,4-diphenylpyrrolidin-3-yl)ethyl)morpholine] | – | – | most or all the desired beneficial pharmacological activity associated with the racemic doxapram | significantly reduced adverse side effects
